Experimental data reported in patent US20230210853A1 (Halia Therapeutics, Inc., priority 2020, published 2023).
pIC50: −log10 of the molar value.

molecular target: T1, full-length recombinant human NEK7 (Homo sapiens, UniProt Q8TDX7); assay: NEK7 enzymatic assay ([33P]-ATP, casein substrate); format: biochemical; details: Table 2a; recombinant human NEK7, casein substrate
T1 construct: full-length recombinant human NEK7; GST (N); purchased SignalChem N09-10G; host or cells: Sf9 insect cells (baculovirus)
Experimental: In some embodiments, the IC50 of the compounds of Structure (I), (Ia), (Ib), (Ic), (Id), (Ie), or (If) to inhibit NEK7 was determined by the concentration of the compound required to inhibit 50% of the activity of the NEK kinase.
(§1) Casein substrate (from bovine milk, hydrolyzed and partially dephosphorylated mixture of α, β and κ caseins, obtained from Sigma Aldrich, catalogue #C4765, diluted in distilled water to a final concentration of 1 mg/mL) and full-length recombinant human NEK7 (expressed by baculovirus in Sf9 insect cells using a N-terminal GST tag, obtained from SignalChem, catalogue #N09-10G, 0.1 μg/μL) were mixed in assay buffer (20 mM Hepes pH 7.5, 10 mM MgCl2, 1 mM EGTA, 0.02% Brij35, 0.02 mg/ml BSA, 0.1 mM Na3 VO4, 2 mM DTT, 1% DMSO). Compounds of interest (serial 3-fold dilution in DMSO from 10 μM to 0.5 nM) or vehicle (1% DMSO) were dispensed into the kinase reaction mixture by Acoustic technology (Echo550, nanoliter range). After incubation at room temperature for 20 minutes, the kinase reaction was initiated by addition of [^33P]-ATP (specific activity 10 μCi/μl) and the mixture was incubated at room temperature for 2 hours. The reaction was then stopped by spotting the reaction mixture on strips of phosphocellulose P81 paper. Following washing, the radioactivity of the P81 paper was measured and kinase activity data were expressed as the percent remaining kinase activity in test samples compared to vehicle reactions. IC50 values and curve fits were obtained using Prism (GraphPad Software).
as §1, with “μg/L)” for “μg/μL)”, “Na3VO4,” for “Na3 VO4,”, “(Echo550;” for “(Echo550,”

T1 sequence (Q8TDX7 whole entry): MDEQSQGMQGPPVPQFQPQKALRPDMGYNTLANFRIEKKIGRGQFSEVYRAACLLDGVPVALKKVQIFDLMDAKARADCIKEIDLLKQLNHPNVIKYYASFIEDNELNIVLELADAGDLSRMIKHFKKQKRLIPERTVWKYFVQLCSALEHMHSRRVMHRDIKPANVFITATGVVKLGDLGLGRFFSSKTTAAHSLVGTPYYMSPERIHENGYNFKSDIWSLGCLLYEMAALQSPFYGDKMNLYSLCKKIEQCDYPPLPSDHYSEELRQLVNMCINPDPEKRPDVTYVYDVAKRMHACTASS

| SMILES | pIC50 |
| --- | --- |
| CC(C)n1nc(-c2ccc(NC(=O)Nc3cc(C(C)(C)C)no3)cc2)c2c(N)ncnc21 [Ia-1, 1-(4-(4-amino-1-isopropyl-1H-pyrazolo[3,4-d]pyrimidin-3-yl)phenyl)-3-(3-(tert-butyl)isoxazol-5-yl)urea] | 6.30 to 6.52 |
| CC(C)(C)c1cc(NC(=O)Nc2ccc(-c3nn(C4COC4)c4ncnc(N)c34)cc2)on1 [Ia-2, 1-(4-(4-amino-1-(oxetan-3-yl)-1H-pyrazolo[3,4-d]pyrimidin-3-yl)phenyl)-3-(3-(tert-butyl)isoxazol-5-yl)urea] | 6.52 to 6.82 |
| CC(C)(C)c1cc(NC(=O)Nc2ccc(-c3nn(C4COC4)c4ncnc(N)c34)cc2)no1 [Ia-3, 1-(4-(4-amino-1-(oxetan-3-yl)-1H-pyrazolo[3,4-d]pyrimidin-3-yl)phenyl)-3-(5-(tert-butyl)isoxazol-3-yl)urea] | 6.52 to 6.82 |
| CC(C)(C)c1cc(NC(=O)Nc2ccc(-c3nn(C4CCOCC4)c4ncnc(N)c34)cc2)on1 [Ia-4, 1-(4-(4-amino-1-(tetrahydro-2H-pyran-4-yl)-1H-pyrazolo[3,4-d]pyrimidin-3-yl)phenyl)-3-(3-(tert-butyl)isoxazol-5-yl)urea] | 6.30 to 6.52 |
| CC(C)(C)c1cc(NC(=O)Nc2ccc(-c3nn(C4CCOC4)c4ncnc(N)c34)cc2)on1 (stereo not drawn) [Ia-5, 1-(4-(4-amino-1-(tetrahydrofuran-3-yl)-1H-pyrazolo[3,4-d]pyrimidin-3-yl)phenyl)-3-(3-(tert-butyl)isoxazol-5-yl)urea] | 6.52 to 6.82 |
| CC(C)n1nc(-c2ccc(NC(=O)Nc3cc(C(C)(C)C)no3)c(Cl)c2)c2c(N)ncnc21 [Ia-6] | 5.82 to 6.30 |
| CC(C)(C)c1cc(NC(=O)Nc2ccc(-c3nn(C4CCC4)c4ncnc(N)c34)cc2)on1 [Ia-7, 1-(4-(4-amino-1-cyclobutyl-1H-pyrazolo[3,4-d]pyrimidin-3-yl)phenyl)-3-(3-(tert-butyl)isoxazol-5-yl)urea] | 6.52 to 6.82 |
| CC(C)(C)c1cc(NC(=O)Nc2ccc(-c3nn(C4CCC4)c4ncnc(N)c34)cc2F)on1 [Ia-8, 1-(4-(4-amino-1-cyclobutyl-1H-pyrazolo[3,4-d]pyrimidin-3-yl)-2-fluorophenyl)-3-(3-(tert-butyl)isoxazol-5-yl)urea] | > 6.82 |
| CC(C)(O)Cn1nc(-c2ccc(NC(=O)Nc3cc(C(C)(C)C)no3)cc2)c2c(N)ncnc21 [Ia-9, 1-(4-(4-amino-1-(2-hydroxy-2-methylpropyl)-1H-pyrazolo[3,4-d]pyrimidin-3-yl)phenyl)-3-(3-(tert-butyl)isoxazol-5-yl)urea] | 6.30 to 6.52 |
| CC(C)(O)Cn1nc(-c2ccc(NC(=O)Nc3cc(C(C)(C)C)no3)c(F)c2)c2c(N)ncnc21 [Ia-10] | > 6.82 |
| CC(C)n1nc(-c2ccc(NC(=O)Nc3cc(C(C)(C)C)no3)c(F)c2)c2c(N)ncnc21 [Ia-11, 1-(4-(4-amino-1-isopropyl-1H-pyrazolo[3,4-d]pyrimidin-3-yl)-2-fluorophenyl)-3-(3-(tert-butyl)isoxazol-5-yl)urea] | > 6.82 |
| CC(C)(C)c1cc(NC(=O)Nc2ccc(-c3nn(C4CCC(O)CC4)c4ncnc(N)c34)cc2F)on1 (stereo not drawn) [Ia-15] | > 6.82 |
| CC(C)(C)c1cc(NC(=O)Nc2ccc(-c3nn(C4CC(F)(F)C4)c4ncnc(N)c34)cc2F)on1 [Ia-16, 1-(4-(4-amino-1-(3,3-difluorocyclobutyl)-1H-pyrazolo[3,4-d]pyrimidin-3-yl)-2-fluorophenyl)-3-(3-(tert-butyl)isoxazol-5-yl)urea] | 5.82 to 6.30 |
| CC(C)(C)c1cc(NC(=O)Nc2ccc(-c3nn(-c4ccncc4)c4ncnc(N)c34)cc2F)on1 [Ia-17, 1-(4-(4-amino-1-(pyridin-4-yl)-1H-pyrazolo[3,4-d]pyrimidin-3-yl)-2-fluorophenyl)-3-(3-(tert-butyl)isoxazol-5-yl)urea] | 6.30 to 6.52 |
| CC(C)(C)c1cc(NC(=O)Nc2ccc(-c3nn(C4CCS(=O)(=O)C4)c4ncnc(N)c34)cc2F)on1 (stereo not drawn) [Ia-18, 1-(4-(4-amino-1-(1,1-dioxdotetrahydrothiophen-3-yl)-1H-pyrazolo[3,4-d]pyrimidin-3-yl)-2-fluorophenyl)-3-(3-(tert-butyl)isoxazol-5-yl)urea] | 6.52 to 6.82 |
| CC(C)(C)c1cc(NC(=O)Nc2ccc(-c3nn(C4CCCOC4)c4ncnc(N)c34)cc2F)on1 (stereo not drawn) [Ia-19, 1-(4-(4-amino-1-(tetrahydro-2H-pyran-3-yl)-1H-pyrazolo[3,4-d]pyrimidin-3-yl)-2-fluorophenyl)-3-(3-(tert-butyl)isoxazol-5-yl)urea] | 6.30 to 6.52 |
| CC(C)(C)c1cc(NC(=O)Nc2ccc(-c3nn(C4CC4)c4ncnc(N)c34)cc2)on1 [Ia-20, 1-(4-(4-amino-1-cyclopropyl-1H-pyrazolo[3,4-d]pyrimidin-3-yl)phenyl)-3-(3-(tert-butyl)isoxazol-5-yl)urea] | > 6.82 |
| CC(C)(c1cc(NC(=O)Nc2ccc(-c3nn(C4CC4)c4ncnc(N)c34)cc2F)on1)C(F)(F)F [Ia-22, 1-(4-(4-amino-1-cyclopropyl-1H-pyrazolo[3,4-d]pyrimidin-3-yl)-2-fluorophenyl)-3-(3-(1,1,1-trifluoro-2-methylpropan-2-yl)isoxazol-5-yl)urea] | 6.52 to 6.82 |

same assay, conditions: comparative compounds of Structure (II)

| SMILES | pIC50 |
| --- | --- |
| CC(C)n1nc(-c2ccc3c(c2F)CCN3C(=O)Cc2cccc(C(F)(F)F)c2)c2c(N)ncnc21 [II-1, l-(5-(4-amino-1-isopropyl-1H-pyrazolo[3,4-d]pyrimidin-3-yl)-4-fluoroindolin-1-yl)-2-(3-(trifluoromethyl)phenyl)ethan-1-one] | 6.30 to 6.52 |
| CC(C)n1nc(-c2ccc3c(c2F)CCN3C(=O)Cc2ccc(F)c(C(F)(F)F)c2)c2c(N)ncnc21 [II-2, 1-(5-(4-amino-1-isopropyl-1H-pyrazol[3,4-d]pyrimidin-3-yl)-4-fluoroindolin-1-yl)-2-(4-fluoro-3-(trifluoromethyl)phenyl)ethan-1-one] | 6.52 to 6.82 |
| Nc1ncnc2c1c(-c1ccc3c(c1F)CCN3C(=O)Cc1cccc(C(F)(F)F)c1)nn2C1CC1 [II-4, 1-(5-(4-amino-1-cyclopropyl-1H-pyrazolo[3,4-d]pyrimidin-3-yl)-4-fluoroindolin-1-yl)-2-(3-(trifluoromethyl)phenyl)ethan-1-one] | 6.52 to 6.82 |
| Cc1ccc(CC(=O)N2CCc3c2ccc(-c2nn(C(C)C)c4ncnc(N)c24)c3F)cc1C(F)(F)F [II-5, 1-(5-(4-amino01-isopropyl-1H-pyrazolo[3,4-d]pyrimidin-3-yl)-4-fluoroindolin-1-yl)-2-(4-methyl-3-(trifluoromethyl)phenyl)ethan-1-one] | 6.30 to 6.52 |
| Cc1c(CC(=O)N2CCc3c2ccc(-c2nn(C(C)C)c4ncnc(N)c24)c3F)cccc1C(F)(F)F [II-6, 1-(5-(4-amino-1-isopropyl-1H-pyrazolo[3,4-d]pyrimidin-3-yl)-4-fluoroindolin-l-yl)-2-(2-methyl-3-(trifluoromethyl)phenyl)ethan-1-one] | < 5.82 |
| CC(C)n1nc(-c2ccc3c(c2F)CCN3C(=O)Cc2cccc(OC(F)(F)F)c2)c2c(N)ncnc21 [II-7, 1-(5-(4-amino-1-isopropyl-1H-pyrazolo[3,4-d]pyrimidin-3-yl)-4-fluoroindolin-1-yl)-2-(3-(trifluoromethoxy)phenyl)ethan-1-one] | 6.52 to 6.82 |
| CC(C)n1nc(-c2ccc3c(c2Cl)CCN3C(=O)Cc2ccc(F)c(C(F)(F)F)c2)c2c(N)ncnc21 [II-8, 1-(5-(4-amino-1-isopropyl-1H-pyrazolo[3,4-d]pyrimidin-3-yl)-4-chloroindolin-1-yl)-2-(4-fluoro-3-(trifluoromethyl)phenyl)ethan-1-one] | 5.82 to 6.30 |
| Nc1ncnc2c1c(-c1ccc3c(c1F)CCN3C(=O)Cc1ccc(F)c(C(F)(F)F)c1)nn2C1COC1 [II-9, 1-(5-(4-amino-1-(oxetan-3-yl)-1H-pyrazolo[3,4-d]pyrimidin-3-yl)-4-fluoroindolin-1-yl)-2-(4-fluoro-3-(trifluoromethyl)phenyl)ethan-1-one] | 5.82 to 6.30 |
| Nc1ncnc2c1c(-c1ccc3c(c1Cl)CCN3C(=O)Cc1ccc(F)c(C(F)(F)F)c1)nn2C1COC1 [II-10, 1-(5-(4-amino-1-(oxetan-3-yl)-1H-pyrazolo[3,4-d]pyrimidin-3-yl)-4-chloroindolin-1-yl)-2-(4-fluoro-3-(trifluoromethyl)phenyl)ethan-1-one] | 6.52 to 6.82 |
